Data: patent US11058676B2, “Quinolinone lysyl oxidase-like 2 inhibitors and uses thereof” (PHARMAKEA, INC., priority 2016, dated 2021)

Test system: C57Bl/6 male mice
Assay: Mouse oropharyngeal bleomycin model of lung fibrosis
Assay type: in vivo
Conditions: dosed prophylactically at 60 mg/kg p.o.
Procedure: Example B-3: Mouse Oropharyngeal Bleomycin Model of Lung Fibrosis
Lung fibrosis is induced in C57Bl/6 male mice by administering bleomycin (0.1-4 U/kg) via oropharyngeal instillation. Mice are either pretreated with vehicle or test compound (1 day to 1 hour) orally, intraperitoneally, intravenously or subcutaneously before bleomycin installation (prophylactic dosing) or 7-14 days post bleomycin instillation (therapeutic dosing). The route and frequency of dosing are based on previously determined pharmacokinetic properties for the LOXL2 inhibitor in mouse. After bleomycin instillation animals are monitored daily for weight loss and clinical signs for 14-28 days prior to sacrifice. […] For histological examination, lung slices are stained with Masson's trichrome or Picro-Sirius red to measure cross-linked collagen as an indicator of fibrosis and an Ashcroft score of lung fibrotic and inflammatory damage determined. In addition, immunohistochemistry of fibrotic proteins such as a-smooth muscle actin can be recorded. […] After the acid hydrolysis, 25-100 μl of the supernatant is dried down, resuspended in 25 μl water and the hydroxyproline content determined by the addition of 0.5 ml Chloramine T solution (140 mg Chloramine T in 6.5 ml ddH2O+1 ml n-propanol+2.5 ml 1M sodium acetate) and incubation at room temperature for 20 min. […]

Structure (SMILES): NCc1cc(=O)c2cc(Br)ccc2[nH]1 [Compound 1-3, 2-(Aminomethyl)-6-bromoquinolin-4(1H)-one]
- efficacy in mouse oropharyngeal bleomycin model of lung fibrosis: efficacious
